In PMC10145973, “Genomic Insights into Bacterial Resistance to Proline-Rich Antimicrobial Peptide Bac7” (Membranes, 2023):
Converted amounts (≈) assume the structure as drawn. Marks after values point to notes of the source that are not given here. Where a SMILES comes first, the peptide text is derived from it.

Key:
E. coli MDR 1057 B3 = conditions: 24 h, 37 °C; for Minimum Inhibitory Concentration, B3: Table 2, broth microdilution in MHB (medium ±0.9% NaCl not given), 0.1% BSA, median of at least three independent experiments in triplicate
Mycobacterium phlei = test system: Mycobacterium phlei; design: method as in PMID 35629841; conditions: cited from earlier work
[1] = test system: Mycobacterium smegmatis mc(2)155; test: MIC against Mycobacterium smegmatis (unpublished data); assay type: cell-based; conditions: authors' unpublished data
E. coli MDR 1057 WT = conditions: 24 h, 37 °C
E. coli MDR 1057 B2 = conditions: 24 h, 37 °C; for Minimum Inhibitory Concentration, B2: Table 2, broth microdilution in MHB (medium ±0.9% NaCl not given), 0.1% BSA, median of at least three independent experiments in triplicate
E. coli MDR 1057 P1 = conditions: Table 2; broth microdilution in MHB (medium ±0.9% NaCl not given), 0.1% BSA, 24 h, 37 °C; median of at least three independent experiments in triplicate
[2] = test system: septic shock-modelled rats; design: method as in PMID 12785015; conditions: comparable with polymyxin B; cited from earlier work
[3] = test system: E. coli BW25113 ΔwaaP (waaP::kan, JW3605); test: MIC, broth microdilution, waaP knockout; assay type: cell-based, Escherichia coli; conditions: 24 h, 37 °C
E. coli BW25113 WT = test: MIC, broth microdilution, BW25113; assay type: cell-based, Escherichia coli; conditions: 24 h, 37 °C
[4] = test system: E. coli BW25113 ΔsbmA (sbmA::kan, JW0368); test: MIC, broth microdilution, sbmA knockout; assay type: cell-based, Escherichia coli; conditions: Fig. 3C, 24 h, 37 °C
E. coli MDR 1057 B1 = conditions: Fig. 3C, 24 h, 37 °C
[5] = test system: E. coli BW25113 ΔwaaP (pBAD-WaaP^N159H); conditions: complementation in BW25113 ΔwaaP, 0.1 g/L arabinose
[6] = Fig. 3C and text, MHB +0.9% NaCl
[7] = selection in MHB without 0.9% NaCl

**Q.** For `CC[C@H](C)[C@H](NC(=O)[C@H](CCCNC(=N)N)NC(=O)[C@@H](N)CCCNC(=N)N)C(=O)N[C@@H](CCCNC(=N)N)C(=O)N[C@@H](CCCNC(=N)N)C(=O)N1CCC[C@H]1C(=O)N[C@@H](CCCNC(=N)N)C(=O)N[C@@H](CC(C)C)C(=O)N1CCC[C@H]1C(=O)N[C@@H](CCCNC(=N)N)C(=O)N1CCC[C@H]1C(=O)N[C@@H](CCCNC(=N)N)C(=O)N[C@H](C(=O)N1CCC[C@H]1C(=O)N[C@@H](CCCNC(=N)N)C(=O)N1CCC[C@H]1C(=O)N[C@@H](CCCNC(=N)N)C(=O)N[C@H](C(=O)N1CCC[C@H]1C(=O)N1CCC[C@H]1C(=O)N[C@@H](CCCNC(=N)N)C(=O)N[C@H](C(=O)N1CCC[C@H]1C(=O)N[C@@H](CCCNC(=N)N)C(=O)N1CCC[C@H]1C(=O)N[C@H](C(=O)N[C@@H](CC(C)C)C(=O)N1CCC[C@H]1C(=O)N1CCC[C@H]1C(=O)N1CCC[C@H]1C(=O)N[C@@H](CCCNC(=N)N)C(=O)N[C@H](C(=O)N1CCC[C@H]1C(=O)N[C@@H](Cc1ccccc1)C(=O)N1CCC[C@H]1C(=O)N[C@@H](CCCNC(=N)N)C(=O)N[C@@H](Cc1ccccc1)C(=O)N1CCC[C@H]1C(=O)N[C@@H](CCCNC(=N)N)C(N)=O)C(C)C)C(C)C)[C@@H](C)CC)[C@@H](C)CC)C(C)C` [VicBac] (H-RRIRRPRLPRPRVPRPRIPPRIPRPVLPPPRVPFPRFPR-NH2; N-terminus assumed), which “Minimum Inhibitory Concentration, B3” value (E. coli MDR 1057 B3) is on record?
**A.** The value was 2 µM.

**Q.** And the MIC (Mycobacterium phlei)?
**A.** Its MIC is 0.5 to 1 µM.

**Q.** What about the MIC [1] of the same compound?
**A.** The MIC was 0.5 to 1 µM.

**Q.** And the “Minimum Inhibitory Concentration, WT” value (E. coli MDR 1057 WT; Table 2, broth microdilution in MHB (medium ±0.9% NaCl not given), 10^6 CFU/mL suspension, agents diluted in 0.1% BSA, visible turbidity, median of at least three independent experiments in triplicate)?
**A.** Its value is 1 µM.

**Q.** What about the “Minimum Inhibitory Concentration, B2” value (E. coli MDR 1057 B2) of the same compound?
**A.** Its value is 2 µM.

**Q.** And the “Minimum Inhibitory Concentration, P1” value (E. coli MDR 1057 P1)?
**A.** Its value is 4 µM.

**Q.** With “Bac7_1-35: Bac7 fragment 1-35 (RRIRPRPPRLPRPRPRPLPFPRPGPRPIPRPLPFP; Bactenecin-7; UniProt P19661 131-165, looked up, fragment)” as the compound, how does the “plasma LPS levels and lethality rates” value [2] read?
**A.** The value was “significant decrease”.

**Q.** Which “MIC, MHB +0.9% NaCl” value [3, 6] does the source give for `CC[C@H](C)[C@H](NC(=O)[C@H](CCCNC(=N)N)NC(=O)[C@@H](N)CCCNC(=N)N)C(=O)N[C@@H](CCCNC(=N)N)C(=O)N1CCC[C@H]1C(=O)N[C@@H](CCCNC(=N)N)C(=O)N1CCC[C@H]1C(=O)N1CCC[C@H]1C(=O)N[C@@H](CCCNC(=N)N)C(=O)N[C@@H](CC(C)C)C(=O)N1CCC[C@H]1C(=O)N[C@@H](CCCNC(=N)N)C(=O)N1CCC[C@H]1C(=O)N[C@@H](CCCNC(=N)N)C(=O)N1CCC[C@H]1C(=O)N[C@@H](CCCNC(=N)N)C(=O)N1CCC[C@H]1C(=O)N[C@@H](CC(C)C)C(=O)N1CCC[C@H]1C(=O)N[C@@H](Cc1ccccc1)C(=O)N1CCC[C@H]1C(=O)N[C@@H](CCCNC(=N)N)C(=O)O` [Bac7_1-22] (H-RRIRPRPPRLPRPRPRPLPFPR-OH) here?
**A.** Its value is 1 µM (≈ 2.78 µg/mL).

**Q.** What about the “MIC, MHB” value ([3]; Fig. 3C, salt-free MHB) of the same compound?
**A.** Its value is 2 µM.

**Q.** What about the “MIC, MHB +0.9% NaCl” value (E. coli MDR 1057 B3; Fig. 3C and text, MDR 1057 B3, MHB +0.9% NaCl) of the same compound?
**A.** Its value is 32−64 μM.

**Q.** What about the “MIC, MHB” value (E. coli MDR 1057 B3; Fig. 3C and text, MDR 1057 B3, salt-free MHB) of the same compound?
**A.** Its value is 32 µM.

**Q.** And the “Minimum Inhibitory Concentration, B3” value (E. coli MDR 1057 B3)?
**A.** The value was greater than 32 µM.

**Q.** And the “MIC, MHB +0.9% NaCl” value (E. coli BW25113 WT; [6])?
**A.** The value was 1 µM (≈ 2.78 µg/mL).

**Q.** And the “MIC, MHB” value (E. coli BW25113 WT; Fig. 3C, salt-free MHB)?
**A.** The value was 2 µM.

**Q.** What about the “MIC, MHB +0.9% NaCl” value (E. coli MDR 1057 WT; Fig. 3C, MDR 1057 WT, MHB +0.9% NaCl, median of ≥3 experiments) of the same compound?
**A.** Its value is 2 µM (≈ 5.57 µg/mL).

**Q.** What about the “MIC, MHB” value (E. coli MDR 1057 WT; Fig. 3C, MDR 1057 WT, salt-free MHB, median of ≥3 experiments) of the same compound?
**A.** The value was 1−2 μM.

**Q.** And the “MIC, MHB +0.9% NaCl” value (E. coli MDR 1057 B2; Fig. 3C, MDR 1057 B2, MHB +0.9% NaCl)?
**A.** Its value is 32 µM (≈ 89.1 µg/mL).

**Q.** What about the “MIC, MHB” value (E. coli MDR 1057 B2; Fig. 3C, MDR 1057 B2, salt-free MHB) of the same compound?
**A.** Its value is 1 µM.

**Q.** What about the “Minimum Inhibitory Concentration, B2” value (E. coli MDR 1057 B2) of the same compound?
**A.** The value was greater than 32 µM.

**Q.** And the “increases in MIC values after initial 3-4 passages” value (E. coli MDR 1057 strain; selection in MHB + 0.9% NaCl, strains B1 and B2)?
**A.** The value was no less than 32 fold.

**Q.** What about the “increase in MICs after 4 weeks of selection, strain B3” value (E. coli MDR 1057 strain; [7]) of the same compound?
**A.** Its value is 32 fold.

**Q.** What about the “increase in MICs after 4 weeks of selection, strain B4” value (E. coli MDR 1057 strain; [7]) of the same compound?
**A.** The value was 4 fold.

**Q.** And the “increase in minimal inhibitory concentrations (MICs), three resistant strains” value (E. coli MDR 1057 strain; serial passaging, four-week experimental evolution (abstract))?
**A.** Its value is no less than 16 fold.

**Q.** What about the “MIC, MHB +0.9% NaCl” value ([4]; MHB +0.9% NaCl) of the same compound?
**A.** Its value is 16 µM (≈ 44.6 µg/mL).

**Q.** And the “MIC, MHB” value ([4]; salt-free MHB)?
**A.** The value was 1 µM.

**Q.** What about the “Minimum Inhibitory Concentration, P1” value (E. coli MDR 1057 P1) of the same compound?
**A.** Its value is 16 * µM.

**Q.** What about the “MIC, MHB +0.9% NaCl” value (E. coli MDR 1057 B1; MHB +0.9% NaCl) of the same compound?
**A.** Its value is 32 µM (≈ 89.1 µg/mL).

**Q.** What about the “MIC, MHB” value (E. coli MDR 1057 B1; salt-free MHB) of the same compound?
**A.** Its value is 1 µM.

**Q.** What about the “increase in MICs for the strain expressing waaP^N159H as compared with the wild-type variant” value [5] of the same compound?
**A.** The value was 4–8 fold.
